# Tests used:
# [1] = biological target: T1, cloned human κ opioid receptor (Homo sapiens, UniProt P41145); test: [3H]diprenorphine receptor binding, κ opioid receptor; details: [3H]diprenorphine displacement; read-out: affinity (expressed as Ki value) to the κ opioid receptor
# T1 construct: expressed in transfected cells
# Procedure: (§1) Ki values were obtained by Cheng-Prusoff corrections of IC50 values.
# (§2) After dilution in buffer A and homogenization as before, membrane proteins (10-80 μg) in 250 μL were added to mixtures containing test compound and [^3H]diprenorphine (0.5 to 1.0 nM, 40,000 to 50,000 dpm) in 250 μL of buffer A in 96-well deep-well polystyrene titer plates (Beckman). After incubation at room temperature for one hour, the samples were filtered through GF/B filters that had been presoaked in a solution of 0.5% (w/v) polyethylenimine and 0.1% (w/v) bovine serum albumin in water. The filters were rinsed 4 times with 1 mL of cold 50 mM Tris HCl, pH 7.8 and radioactivity remaining on the filters determined by scintillation spectroscopy. Nonspecific binding was determined by the minimum values of the titration curves and was confirmed by separate assay wells containing 10 μM naloxone.
# (§3) To determine the equilibrium dissociation constant for the inhibitors (Ki), radioligand bound (cpm) in the presence of various concentrations of test compounds was measured. The concentration to give half-maximal inhibition (EC50) of radioligand binding was determined from a best nonlinear regression fit to the following equation,
# (§4) The nonlinear regression fit was performed using the program Prism® (GraphPad Software, San Diego, Calif.). The Ki values were then determined from the EC50 values by the following equation, […]
# [2] = biological target: T2, cloned human δ opioid receptor (Homo sapiens, UniProt P41143); test: [3H]diprenorphine receptor binding, δ opioid receptor; details: [3H]diprenorphine displacement; read-out: affinity (expressed as Ki value) to the δ opioid receptor
# T2 construct: expressed in transfected cells
# Procedure: as §1, §2, §3, §4
# T1 sequence (P41145 whole entry): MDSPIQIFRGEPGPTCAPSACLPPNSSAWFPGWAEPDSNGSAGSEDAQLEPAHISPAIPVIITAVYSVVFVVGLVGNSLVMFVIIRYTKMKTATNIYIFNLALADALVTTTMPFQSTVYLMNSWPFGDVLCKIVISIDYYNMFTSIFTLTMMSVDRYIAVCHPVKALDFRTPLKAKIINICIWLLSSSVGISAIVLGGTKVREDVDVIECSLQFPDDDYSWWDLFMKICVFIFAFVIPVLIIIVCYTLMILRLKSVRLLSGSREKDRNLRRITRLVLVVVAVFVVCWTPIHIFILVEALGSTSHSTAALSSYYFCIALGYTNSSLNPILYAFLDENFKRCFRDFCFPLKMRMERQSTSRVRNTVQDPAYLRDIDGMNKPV
# T2 sequence (P41143 whole entry): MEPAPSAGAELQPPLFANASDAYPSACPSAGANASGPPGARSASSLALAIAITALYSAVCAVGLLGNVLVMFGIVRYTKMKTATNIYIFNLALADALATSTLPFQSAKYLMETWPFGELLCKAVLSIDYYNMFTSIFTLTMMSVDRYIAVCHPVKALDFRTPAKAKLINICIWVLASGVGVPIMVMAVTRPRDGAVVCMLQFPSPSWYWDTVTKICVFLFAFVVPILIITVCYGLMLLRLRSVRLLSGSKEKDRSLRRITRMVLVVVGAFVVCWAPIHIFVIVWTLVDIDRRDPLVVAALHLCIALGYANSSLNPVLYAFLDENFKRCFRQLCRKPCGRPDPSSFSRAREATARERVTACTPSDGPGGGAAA
smiles,measurement,setting,value
"C[C@H]1CN(C[C@H](Cc2ccccc2)C(=O)N[C@@H](CCCN)C(=O)O)CC[C@@]1(C)c1cccc(O)c1 [Example 28, 5-Amino-2(S)-{2(S)-benzyl-3-[4(R)-(3-hydroxy-phenyl)-3(R),4-dimethyl-piperidin-1-yl]-propionylamino}-pentanoic acid]",Ki,[1],200 nM
same,Ki,[2],510 nM
